# Test results reported in the OPERA property sets (Mansouri et al. 2018).
# Peptide text beside a SMILES is read from it.
# Details: not given
row,SMILES,logP
1,CCCCNc1nc(NC)nc(SC(F)F)n1,3.7
2,CCCCN(CCCC)CC(O)c1ccccc1 (configuration not stated),3.16
3,O=[N+]([O-])c1ccnc2ccccc12,2.06
4,c1ccc2c(c1)[nH]c1ccccc12,3.72
5,CC(=NNC(=S)NNC(=S)N(C)C)c1ccccn1,1.25
6,O=C1CN=C(c2ccc(F)cc2)c2cc(Cl)ccc2N1,2.9
7,CC=C(C)C1(C)CC(=O)C(C(CCC)=NOCC)C(=O)O1 (configuration not stated),3.4
8,CC(=O)OCC(=O)[C@@]12OC(C)(C)O[C@@H]1C[C@H]1[C@@H]3C[C@H](F)C4=CC(=O)C=C[C@]4(C)[C@@]3(F)[C@@H](O)C[C@@]12C,3.19
9,CN(C)C(N(C)C)=S(I)c1cccc([N+](=O)[O-])c1 (configuration not stated),-0.88
10,CC(C)N(N=O)C(C)C,1.38
11,c1ccc2c(N3CCCCC3)ncnc2c1,2.92
12,CC(=O)c1ccc(C(=O)O)cc1,1.61
13,CNC(=O)Oc1cccc2c1OC(C)(C)O2,1.7
14,COc1cc(CC(=O)O)ccc1OC(C)C,1.75
15,NNC(=O)c1ccc(Cl)cc1,1.18
16,O=C(O)CCCN1C(=O)C=CC1=O,0.4
17,ON=Cc1ccccc1,1.85
18,CNC(=O)Oc1cccc(C)c1C,1.95
19,O=C(NN=Cc1ccoc1)Nc1ccccc1,2.52
20,CC(=O)NN,-1.58
21,Cc1ccccc1Cl,3.42

row,SMILES,logP
1,NC(Cc1ccccc1)C(=O)OCn1ncc2c(=O)[nH]cnc21 (configuration not stated),0.4
2,NC(=S)NN=Cc1ccccc1,1.86
3,CCCC(=O)OC1(C(=O)CCl)C(C)CC2C3CCC4=CC(=O)C=CC4(C)C3(F)C(O)CC21C (configuration not stated),3.63
4,OC(c1ccccc1)(c1cncnc1)c1ccc(Cl)cc1Cl (configuration not stated),2.56
5,NNC(=O)c1ccc(I)cc1,1.55
6,CC(C)c1ccc(NC(=O)N(C)C)cc1,2.87
7,CCCNC(=O)c1[nH]nc(C)c1[N+](=O)[O-],0.65
8,Cc1cccc2c(C)cccc12,4.38
9,Cc1ccccc1N,1.32
10,CCCCOC(=O)c1ccc(O)cc1,3.57
11,O=[N+]([O-])c1cccc2ncccc12,1.86
12,CC(C)Br,2.14
13,CC(=O)N(C)c1ccccc1,1.12
14,CC(=O)Nc1cccc(OCC(=O)O)c1,0.48
15,CCC(=O)O,0.33
16,Nc1ccc(C(=O)Oc2ccc(Cl)cc2)c(O)c1,3.6
17,O=C(CCCN1CCC(n2c(=O)[nH]c3ccccc32)CC1)c1ccc(F)cc1,3.91
18,O=C1CN=C(c2ccccc2)c2cc(F)ccc2N1,2.32
19,O=[N+]([O-])c1ccc(OC2OC(CO)C(O)C(O)C2O)cc1 (configuration not stated),-0.44
20,CCOC(=O)C(=Cc1ccccc1C)C(=O)OCC,3.22
21,CN1CCC=C1c1cccnc1,1.13

row,SMILES,logP
1,NNC(=O)c1ccnc(Br)c1,0.25
2,[N-]=[N+]=NC1CC(n2cnc3c(=O)[nH]c(N)nc32)OC1CO (configuration not stated),-0.33
3,CNc1ccc([N+](=O)[O-])cc1,2.04
4,CCOC(=O)C(=Cc1c(Cl)cccc1Cl)C(C)=O,2.86
5,CCSC(=O)N1CCCCCC1,3.21
6,O=C(O)CNC(=O)c1ccccc1,0.31
7,O=C1Cc2ccccc2N1,1.16
8,CS(=O)(=O)c1ccccc1,0.5
9,CC(C)N1CCOC(c2ccccc2)C1 (configuration not stated),2.3
10,COc1ccccc1NCC(N)=O,0.78
11,CCC(C)[N+](=O)[O-] (configuration not stated),1.2
12,CCOP(=S)(OCC)Oc1nc(Cl)n(C(C)C)n1,3.82
13,CC1(c2ccccc2)NC(=O)NC1=O (configuration not stated),1.02
14,OCCCc1cccnc1,0.6
15,CC(=O)N[C@@H](Cc1c[nH]c2ccccc12)C(=O)N[C@H](C(N)=O)C(C)C (Ac-Trp-Val-NH2),0.73
16,c1cn(C23CC4CC(CC(C4)C2)C3)cn1,2.9
17,Cc1cc(C)c(C)cc1C,4
18,C=C,1.13
19,Cc1ccc(-c2cc3ccccn3c2)cc1,4.96
20,O=C(O)Cc1ccccc1Nc1c(Cl)cc(O)cc1Cl,3.7
21,ON=Cc1ccc(F)cc1,2.03

row,SMILES,logP
1,FC(F)(F)c1ccc2cccnc2c1,3.02
2,CCC(=O)O[C@]1(c2ccccc2)CCN(C)C[C@@H]1C,2.83
3,C1COCO1,-0.37
4,Cc1n[nH]c(C(=O)N(C)Cc2ccccc2)c1[N+](=O)[O-],1.65
5,O=C(O)c1ccccc1Nc1cccc(C(F)(F)F)c1,5.25
6,O=NN(CCCl)C(=O)Nc1ccccc1,2.49
7,CCCCN(CCCC)N=O,2.63
8,NS(=O)(=O)c1cccc2cccnc12,0.42
9,Nc1cccc([N+](=O)[O-])c1,1.37
10,O=Cc1cccs1,1.02
11,Cc1ccc(O)c2ncccc12,2.37
12,CC(=S)N(c1ccccc1)c1ccccc1,2.83
13,COC(=O)CNC(=O)c1ccc(N)cc1,-0.23
14,c1cncc([C@@H]2CCCCN2)c1,0.97
15,CNCC(O)c1ccc(O)cc1 (configuration not stated),-0.45
16,NCCc1ccccc1,1.41
17,C=C(Cl)Cl,2.13
18,CC(=O)C(C)=O,-1.34

# Same assay, conditions: pH 5.0
row,SMILES,logD
1,N=C(NCCCCCCNC(=N)NC(=N)Nc1ccc(Cl)cc1)NC(=N)Nc1ccc(Cl)cc1,0.08
